Reference: article PMC9574929, “Development of Hydrogen Sulfide-Releasing Carbonic Anhydrases IX- and XII-Selective Inhibitors with Enhanced Antihyperalgesic Action in a Rat Model of Arthritis” (Journal of Medicinal Chemistry, 2022)
“Also recorded” adds a separate entry of the source.

Tests used:
[1] = target: hCA XII (Homo sapiens, UniProt O43570); test: Stopped-flow CO2 hydrase assay, hCA XII; conditions: selectivity index, ratio of KIs
Protocol: (§3) The uncatalyzed rates were determined in the same manner and subtracted from the total observed rates. Stock solutions of inhibitor (0.1 mM) were prepared in distilled-deionized water and dilutions up to 0.01 nM were done thereafter with the assay buffer. […] The inhibition constants were obtained by nonlinear least-squares methods using PRISM 3 and the Cheng–Prusoff equation, as reported earlier,[39] and represent the mean from at least three different determinations.

[2] = test system: rat model of arthritis induced by the intra-articular injection of complete Freund's adjuvant (CFA); test: Incapacitance test, CFA-induced arthritis; format: in vivo; conditions: for reduction of spontaneous pain, Incapacitance test: single per os, 1 to 30 mg/kg, day 14 after CFA
Protocol: (§1) Articular damage was induced by injection of Complete Freund’s Adjuvant (CFA; Sigma-Aldrich, St Louis, MO, USA), containing 1 mg/mL of heat-killed and dried Mycobacterium tuberculosis in paraffin oil and mannide monooleate, into the tibiotarsal joint.[50] Briefly, the rats were lightly anesthetized with 2% isoflurane, the left leg skin was sterilized with 75% ethyl alcohol, and the lateral malleolus was located by palpation. A 28-gauge needle was then inserted vertically to penetrate the skin and turned distally for insertion into the articular cavity at the gap between the tibiofibular and tarsal bone until a distinct loss of resistance was felt. A volume of 50 μL of CFA was then injected (day 0). Control rats received 50 μL of saline solution (day 0) in the tibiotarsal joint.
(§2) The hybrid derivatives 26, 29, 30, and 31 (1, 10, and 30 mg/kg) were suspended in a 1% solution of carboxymethylcellulose (CMC) sodium salt and acutely per os administered starting from day 14 after CFA i.a. injection, when arthritis was well established. The H2S releaser 3 and CAI 15 were also administered alone or in coadministration at the equimolar dose of compound 30 30 mg/kg (13.23 and 17.71 mg/kg, respectively). The antihypersensitivity effects were evaluated over time by the Paw pressure and Incapacitance tests.
Weight-bearing changes were measured using an incapacitance apparatus (Linton Instrumentation, Norfolk, U.K.) to detect changes in postural equilibrium after a hind limb injury.[53],[54] Rats were trained to stand on their hind paws in a box with an inclined plane (65° from horizontal). This box was placed above the incapacitance apparatus. This allowed us to independently measure the weight that the animal applied on each hind limb. The value reported for each animal is the mean of five consecutive measurements. In the absence of hind limb injury, rats applied an equal weight on both hind limbs, indicating postural equilibrium, whereas an unequal distribution of weight on the hind limbs indicated a monolateral decreased pain threshold. Data are expressed as the difference between the weight applied to the limb contralateral to the injury and the weight applied to the ipsilateral limb (Δ weight).

[3] = target: hCA IX (Homo sapiens, UniProt Q16790); test: Stopped-flow CO2 hydrase assay, hCA IX; conditions: selectivity index, ratio of KIs
Protocol: as §3

[4] = test system: rats; test: Toxicity and Irwin test; format: in vivo, rat; parameters: key to Irwin test: Spontaneous activity / Irwin test: Straightening reflex / Irwin test: Hypo-hyperthermia / Irwin test: Cleaning / Irwin test: Curiosity / Irwin test: Reactivity / Irwin test: Convulsions: observer's semiquantitative score (0 to +4, −4 to 0, or −4 to +4); conditions: 30 mg/kg; for Irwin test: Cyanosis / Irwin test: Exolphthalmos / Irwin test: Flush / Irwin test: Lacrimation / Irwin test: Pallor / Irwin test: Piloerection / Irwin test: Salivation / Irwin test: Writhing / Irwin test: Palpebral opening / Irwin test: Hypo-hyperthermia: Autonomic signes; for Irwin test: Cyanosis / Irwin test: Exolphthalmos / Irwin test: Flush / Irwin test: Lacrimation / Irwin test: Pallor / Irwin test: Piloerection / Irwin test: Salivation / Irwin test: Writhing / Irwin test: Passivity / Irwin test: Vocalization / Irwin test: Ataxia / Irwin test: Stereotipies / Irwin test: Straub tail / Irwin test: Tremors / Irwin test: Delayed death (48 h) / Irwin test: Immediate death: limits 0 - 4; for Irwin test: Palpebral opening / Irwin test: Cleaning / Irwin test: Curiosity / Irwin test: Reactivity / Irwin test: Spontaneous activity / Irwin test: Straightening reflex / Irwin test: Palpebral reflex / Irwin test: Convulsions: limits 4 - 0; for Irwin test: Hypo-hyperthermia: limits -4/+4; for Irwin test: Passivity / Irwin test: Vocalization / Irwin test: Cleaning / Irwin test: Curiosity / Irwin test: Reactivity / Irwin test: Spontaneous activity: Behaviour; for Irwin test: Ataxia / Irwin test: Stereotipies / Irwin test: Straightening reflex: Movement; for Irwin test: Physical strenght: Muscolar tone, limits 4 – 0; for Irwin test: Palpebral reflex: Reflexes; for Irwin test: Straub tail / Irwin test: Tremors / Irwin test: Convulsions: S.N.C. excitement; for Irwin test: Delayed death (48 h) / Irwin test: Immediate death: Toxicity
Protocol: Toxicity was evaluated after a single acute administration of 26, 29, 30, and 31 at 30 mg/kg. […] For the Irwin test, each rat was individually placed in a transparent cage (26 × 41 cm), and 26 neurobehavioral or physiological parameters were systematically assessed according to Irwin (1968)[55] and already reported by Berrino and colleagues in similar studies.[30] Behavioral, autonomic, and neurological manifestations produced by compound administration in rats were evaluated: motor displacement, motor reflexes, stereotypies, grooming, reaction to painful or environmental stimuli (analgesia and irritability), startle response, secretions, excretions, respiratory movements, skin color and temperature, piloerection, exophthalmos, eyelid and corneal reflexes, muscle tone, ataxia, tremors, head twitches, jumps, convulsions, Straub tail, and other signs or symptoms. For postural reflexes (righting reflex) and other signs such as piloerection, exophthalmia (exaggerated protrusion of the eyeball), ataxia, tremors, and Straub tail, only presence or absence was recorded. Skin color was evaluated qualitatively (pale, red, or purple); other signs were evaluated semiquantitatively, according to the observer’s personal scale (0 to +4, −4 to 0, or −4 to +4). The terms sedation and excitation express the final interpretation of a group of signs: reduced motor activity, reduced startle response, eyelid ptosis, and reduced response to manual manipulation, for the former; and increased motor activity, increased startle response, increased response to manual manipulation, and exophthalmia, for the latter. Hyperactivity includes running, jumping, and attempting to escape from the container. Trained observers were not informed about the specific treatment of each animal group carried out in this test.

[5] = test system: rat model of arthritis induced by the intra-articular injection of complete Freund's adjuvant (CFA); test: Paw pressure test, CFA-induced arthritis; format: in vivo; conditions: for antihyperalgesic effect, Paw pressure test, 30 mg/kg: 30 mg/kg per os; for antihyperalgesic effect, Paw pressure test, 1 mg/kg: 1 mg/kg per os; for weight tolerated on the ipsilateral paw, Paw pressure test, 10 and 30 mg/kg: 10 and 30 mg/kg per os, from 15 min up to 45 min after treatment, vs CFA-treated animals
Protocol: as §1, §2
The nociceptive threshold of rats was determined with an analgesimeter (Ugo Basile, Varese, Italy), according to the method described by Leighton et al.[51] and Maresca et al.,[52] (doi: 10.1111/jphp.12828). Briefly, a constantly increasing pressure was applied to a small area of the dorsal surface of the hind paw using a blunt conical probe by a mechanical device. Mechanical pressure was increased until vocalization or a withdrawal reflex occurred while rats were lightly restrained. Vocalization or withdrawal reflex thresholds were expressed in grams. […]

[6] = target: hCA IV (Homo sapiens, UniProt P22748); test: Stopped-flow CO2 hydrase assay, hCA IV; conditions: selectivity index, ratio of KIs
Chain of hCA IV (P22748 19-312): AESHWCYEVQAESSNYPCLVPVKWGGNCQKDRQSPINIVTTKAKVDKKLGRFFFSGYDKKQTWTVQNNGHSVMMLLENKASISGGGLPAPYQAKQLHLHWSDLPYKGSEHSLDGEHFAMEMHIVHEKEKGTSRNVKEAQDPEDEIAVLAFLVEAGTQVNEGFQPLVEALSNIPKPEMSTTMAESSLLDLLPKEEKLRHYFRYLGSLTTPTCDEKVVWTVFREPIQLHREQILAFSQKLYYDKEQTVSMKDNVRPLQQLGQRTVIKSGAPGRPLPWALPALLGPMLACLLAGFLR
Protocol: as §3

Chain of hCA XII (O43570 25-354): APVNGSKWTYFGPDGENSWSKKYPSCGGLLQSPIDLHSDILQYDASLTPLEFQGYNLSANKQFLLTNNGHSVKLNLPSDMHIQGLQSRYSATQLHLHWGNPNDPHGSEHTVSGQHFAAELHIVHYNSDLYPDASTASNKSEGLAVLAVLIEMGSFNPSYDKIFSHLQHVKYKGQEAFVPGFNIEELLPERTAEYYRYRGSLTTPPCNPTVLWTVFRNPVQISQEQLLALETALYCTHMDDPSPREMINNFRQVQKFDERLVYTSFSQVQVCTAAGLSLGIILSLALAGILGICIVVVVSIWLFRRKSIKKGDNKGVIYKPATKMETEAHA

| SMILES | SI CA I/XII [1] | SI CA II/XII [1] | reduction of spontaneous pain, Incapacitance test [2] | SI CA I/IX [3] | SI CA II/IX [3] | Irwin test: Cyanosis [4] | Irwin test: Exolphthalmos [4] | Irwin test: Flush [4] | Irwin test: Lacrimation [4] | Irwin test: Pallor [4] | Irwin test: Piloerection [4] | Irwin test: Salivation [4] | Irwin test: Writhing [4] | Irwin test: Palpebral opening [4] | Irwin test: Hypo-hyperthermia [4] | Irwin test: Passivity [4] | Irwin test: Vocalization [4] | Irwin test: Cleaning [4] | Irwin test: Curiosity [4] | Irwin test: Reactivity [4] | further results |
| --- | --- | --- | --- | --- | --- | --- | --- | --- | --- | --- | --- | --- | --- | --- | --- | --- | --- | --- | --- | --- | --- |
| COc1cc([N+](=O)[O-])ccc1CN(CCc1ccc(S(N)(=O)=O)cc1)C(=O)c1ccc(-c2cssc2=S)cc1 [Compound 26, N-(2-Methoxy-4-nitrobenzyl)-N-(4-sulfamoylphenethyl)-4-(3-thioxo-3H-1,2-dithiol-4-yl)benzamide] | 870 | 383 | reduced spontaneous pain in a dose-dependent manner | 1633 | 719 | 0 | 0 | 0 | 0 | 0 | 0 | 0 | 0 | 4 | 0 | 0 | 0 | 0 | 4 | 4 | antihyperalgesic action at 45 min, Incapacitance test ([2]; per os, 45 min after treatment): almost completely reverting spontaneous pain after 45 min; also recorded: completely reverting pain 45 min after treatment; Irwin test: Spontaneous activity [4]: 4; Irwin test: Ataxia [4]: 0; Irwin test: Stereotipies [4]: 0; Irwin test: Straightening reflex [4]: 4; Irwin test: Physical strenght [4]: 4; Irwin test: Palpebral reflex [4]: 4; Irwin test: Straub tail [4]: 0; Irwin test: Tremors [4]: 0; Irwin test: Convulsions [4]: 0; Irwin test: Delayed death (48 h) [4]: 0; Irwin test: Immediate death [4]: 0; antihyperalgesic effect, Paw pressure test, 30 mg/kg ([5]; day 14 after CFA): completely reverted the pain state 45 min after administration; also recorded: counteracted the mechanical hyperalgesia 45 min after injection; also recorded: completely reverting pain 45 min after treatment; antihypersensitivity effect, Paw pressure test ([5]; single per os, 1 to 30 mg/kg, day 14 after CFA): evoked an antihypersensitivity effect in a dose-dependent manner; SI CA I/IV [6]: 1.6; SI CA II/IV [6]: 0.7 |
| CSc1ccc(CN(CCc2ccc(S(N)(=O)=O)cc2)C(=O)c2ccc(-c3cssc3=S)cc2)cc1 [Compound 29, N-(4-(Methylthio)benzyl)-N-(4-sulfamoylphenethyl)-4-(3-thioxo-3H-1,2-dithiol-4-yl)benzamide] | 858 | 1148 | reduced spontaneous pain in a dose-dependent manner | 156 | 209 | 0 | 0 | 0 | 0 | 0 | 0 | 0 | 0 | 4 | 0 | 0 | 0 | 0 | 4 | 4 | Irwin test: Spontaneous activity [4]: 4; Irwin test: Ataxia [4]: 0; Irwin test: Stereotipies [4]: 0; Irwin test: Straightening reflex [4]: 4; Irwin test: Physical strenght [4]: 4; Irwin test: Palpebral reflex [4]: 4; Irwin test: Straub tail [4]: 0; Irwin test: Tremors [4]: 0; Irwin test: Convulsions [4]: 0; Irwin test: Delayed death (48 h) [4]: 0; Irwin test: Immediate death [4]: 0; antihyperalgesic effect, Paw pressure test, 1 mg/kg [5]: ineffective; weight tolerated on the ipsilateral paw, Paw pressure test, 10 and 30 mg/kg [5]: significantly increased the weight tolerated; SI CA I/IV [6]: 17.9; SI CA II/IV [6]: 23.9 |
| NS(=O)(=O)c1ccc(CCN(Cc2cccc3ccccc23)C(=O)c2ccc(-c3cssc3=S)cc2)cc1 [Compound 30, N-(Naphthalen-1-ylmethyl)-N-(4-sulfamoylphenethyl)-4-(3-thioxo-3H-1,2-dithiol-4-yl)benzamide] | >1428 | 637 | slightly greater efficacy at 10 mg/kg in comparison to the dose of 30 mg/kg | >641 | 286 | 0 | 0 | 0 | 0 | 0 | 0 | 0 | 0 | 4 | 0 | 0 | 0 | 0 | 4 | 4 | effect of the lowest dose, Incapacitance test ([2]; 1 mg/kg per os): ineffective; Irwin test: Spontaneous activity [4]: 4; Irwin test: Ataxia [4]: 0; Irwin test: Stereotipies [4]: 0; Irwin test: Straightening reflex [4]: 4; Irwin test: Physical strenght [4]: 4; Irwin test: Palpebral reflex [4]: 4; Irwin test: Straub tail [4]: 0; Irwin test: Tremors [4]: 0; Irwin test: Convulsions [4]: 0; Irwin test: Delayed death (48 h) [4]: 0; Irwin test: Immediate death [4]: 0; antihyperalgesic effect, Paw pressure test, 1 mg/kg [5]: ineffective; antihyperalgesic effect, Paw pressure test, 30 mg/kg ([5]; day 14 after CFA): greater antihyperalgesic action with respect to 3, 15, and their co-administration; weight tolerated on the ipsilateral paw, Paw pressure test, 10 and 30 mg/kg [5]: significantly increased the weight tolerated; SI CA I/IV [6]: >41.0; SI CA II/IV [6]: 18.3 |
